Test system: HCT116 colorectal cancer cells
Experiment: Cisplatin sensitization assay (96 h cell viability MTS);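 also: Test-compound concentration that lowers the Cisplatin IC50 by a set fold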
Type: cell-based
Settings: compound and Cisplatin added simultaneously, Cisplatin sensitization value
Procedure: Compounds can be screened for their ability to sensitize HCT116 colorectal cancer cells to Cisplatin using a 96 h cell viability (MTS) assay. […] Compounds and Cisplatin are then both added simultaneously to the cell media in 2-fold serial dilutions from a top final concentration of 10 μM as a full matrix of concentrations in a final cell volume of 200 μl, and the cells are then incubated at 37° C. in 5% CO2. After 96 h, 40 μl of MTS reagent (Promega G358a) is added to each well and the cells are incubated for 1 h at 37° C. in 5% CO2.
Compounds with a Cisplatin sensitization value of <0.02 μM are marked with “+++.” Compounds with a Cisplatin sensitization value>0.02 μM but <0.2 μM are marked with “++.” Compounds with a Cisplatin sensitization value>0.2 μM but <5 μM are marked with “+.”

| SMILES | Cisplatin Sensitization Assay |
| --- | --- |
| Nc1nn2cc(F)cnc2c1C(=O)Nc1cncc(F)c1N1CCN(C2CCOC2)CC1 (stereo not drawn) [I-N-122, 2-amino-6-fluoro-N-(5-fluoro-4-(4-(tetrahydrofuran-3-yl)piperazin-1-yl)pyridin-3-yl)pyrazolo[1,5-a]pyrimidine-3-carboxamide] | ++ (Cisplatin sensitization value>0.02 μM but <0.2 μM) |
| N#CCc1cnc2c(C(=O)Nc3cnccc3Oc3ccccc3)c(N)nn2c1 [I-O-25, 2-amino-6-(cyanomethyl)-N-(4-phenoxypyridin-3-yl)pyrazolo[1,5-a]pyrimidine-3-carboxamide] | +++ (Cisplatin sensitization value of <0.02 μM) |
| CN(C)C(=O)C1CCN(c2ccncc2NC(=O)c2c(N)nn3cc(F)cnc23)CC1 [I-G-2, 2-amino-N-(4-(4-(dimethylcarbamoyl)piperidin-1-yl)pyridin-3-yl)-6-fluoropyrazolo[1,5-a]pyrimidine-3-carboxamide] | +++ (Cisplatin sensitization value of <0.02 μM) |
| CN(C)CC1CCN(c2ccncc2NC(=O)c2c(N)nn3cc(Cl)cnc23)CC1 [I-N-45, 2-amino-6-chloro-N-(4-(4-((dimethylamino)methyl)piperidin-1-yl)pyridin-3-yl)pyrazolo[1,5-a]pyrimidine-3-carboxamide] | ++ (Cisplatin sensitization value>0.02 μM but <0.2 μM) |
| CN1CCC(S(=O)(=O)N2CCN(c3ccncc3NC(=O)c3c(N)nn4cc(F)cnc34)CC2)CC1 [I-N-188, 2-amino-6-fluoro-N-(4-(4-((1-methylpiperidin-4-yl)sulfonyl)piperazin-1-yl)pyridin-3-yl)pyrazolo[1,5-a]pyrimidine-3-carboxamide] | +++ (Cisplatin sensitization value of <0.02 μM) |
| Nc1nn2cc(F)cnc2c1C(=O)Nc1cnccc1O[C@@H]1CN2CCC1CC2 [Compound I-0-10, (S)-2-amino-6-fluoro-N-(4-(quinuclidin-3-yloxy)pyridin-3-yl)pyrazolo[1,5-a]pyrimidine-3-carboxamide] | +++ (Cisplatin sensitization value of <0.02 μM) |
| Nc1nn2cc(Cl)cnc2c1C(=O)Nc1cnccc1N1CCC(N2CCn3ccnc3C2)CC1 [I-N-102, 2-amino-6-chloro-N-(4-(4-(5,6-dihydroimidazo[1,2-a]pyrazin-7(8H)-yl)piperidin-1-yl)pyridin-3-yl)pyrazolo[1,5-a]pyrimidine-3-carboxamide] | ++ (Cisplatin sensitization value>0.02 μM but <0.2 μM) |
| Nc1nn2cc(Cl)cnc2c1C(=O)Nc1cnccc1O[C@H]1C[C@@]2(CCN2)C1 [I-O-79, N-(4-((4r,6s)-1-azaspiro[3.3]heptan-6-yloxy)pyridin-3-yl)-2-amino-6-chloropyrazolo[1,5-a]pyrimidine-3-carboxamide] | ++ (Cisplatin sensitization value>0.02 μM but <0.2 μM) |
| Cn1cncc1-c1c(F)cncc1NC(=O)c1c(N)nn2cc(F)cnc12 [I-C-79, 2-amino-6-fluoro-N-(5-fluoro-4-(1-methyl-1H-imidazol-5-yl)pyridin-3-yl)pyrazolo[1,5-a]pyrimidine-3-carboxamide] | +++ (Cisplatin sensitization value of <0.02 μM) |
| CC(=O)N1CCCC12CCN(c1ccncc1NC(=O)c1c(N)nn3cc(F)cnc13)CC2 [I-N-262, N-(4-(1-acetyl-1,8-diazaspiro[4.5]decan-8-yl)pyridin-3-yl)-2-amino-6-fluoropyrazolo[1,5-a]pyrimidine-3-carboxamide] | +++ (Cisplatin sensitization value of <0.02 μM) |
| CN1CCN(c2ccncc2NC(=O)c2c(N)nn3cc(Cl)cnc23)CC1CO (stereo not drawn) [I-N-63, 2-amino-6-chloro-N-(4-(3-(hydroxymethyl)-4-methylpiperazin-1-yl)pyridin-3-yl)pyrazolo[1,5-a]pyrimidine-3-carboxamide] | ++ (Cisplatin sensitization value>0.02 μM but <0.2 μM) |
| Nc1nn2cc(Cl)cnc2c1C(=O)Nc1cnccc1O[C@@H]1CCCNC1 [I-O-81, (R)-2-amino-6-chloro-N-(4-(piperidin-3-yloxy)pyridin-3-yl)pyrazolo[1,5-a]pyrimidine-3-carboxamide] | ++ (Cisplatin sensitization value>0.02 μM but <0.2 μM) |
| Nc1nn2cc(F)cnc2c1C(=O)Nc1cncc(F)c1N1CCC(C(=O)N2CC(N3CCCC3)C2)CC1 [I-G-43, 2-amino-6-fluoro-N-(5-fluoro-4-(4-(3-(pyrrolidin-1-yl)azetidine-1-carbonyl)piperidin-1-yl)pyridin-3-yl)pyrazolo[1,5-a]pyrimidine-3-carboxamide] | +++ (Cisplatin sensitization value of <0.02 μM) |
| Nc1nn2cc(F)cnc2c1C(=O)Nc1cnccc1N1CCC(S(=O)(=O)N2CCC2)CC1 [I-N-271, 2-amino-N-(4-(4-(azetidin-1-ylsulfonyl)piperidin-1-yl)pyridin-3-yl)-6-fluoropyrazolo[1,5-a]pyrimidine-3-carboxamide] | +++ (Cisplatin sensitization value of <0.02 μM) |
| Cc1ncn(C)c1-c1ccncc1NC(=O)c1c(N)nn2cc(F)cnc12 [I-C-78, 2-amino-N-(4-(1,4-dimethyl-1H-imidazol-5-yl)pyridin-3-yl)-6-fluoropyrazolo[1,5-a]pyrimidine-3-carboxamide] | ++ (Cisplatin sensitization value>0.02 μM but <0.2 μM) |
| CN1CCN(c2c(NC(=O)c3c(N)nn4cc(F)cnc34)cncc2C2CC2)CC1 [I-N-5, 2-amino-N-(5-cyclopropyl-4-(4-methylpiperazin-1-yl)pyridin-3-yl)-6-fluoropyrazolo[1,5-a]pyrimidine-3-carboxamide] | ++ (Cisplatin sensitization value>0.02 μM but <0.2 μM) |
| COC(=O)[C@H]1CC[C@H](Oc2ccncc2NC(=O)c2c(N)nn3cc(F)cnc23)CC1 [I-O-13, (1r,4r)-methyl 4-((3-(2-amino-6-fluoropyrazolo[1,5-a]pyrimidine-3-carboxamido)pyridin-4-yl)oxy)cyclohexanecarboxylate] | +++ (Cisplatin sensitization value of <0.02 μM) |
| CC(C)N1CCN(c2ccncc2NC(=O)c2c(N)nn3cc(Cl)cnc23)CC1 [I-N-39, 2-amino-6-chloro-N-(4-(4-isopropylpiperazin-1-yl)pyridin-3-yl)pyrazolo[1,5-a]pyrimidine-3-carboxamide] | ++ (Cisplatin sensitization value>0.02 μM but <0.2 μM) |
| Nc1nn2cc(F)cnc2c1C(=O)Nc1cncc(F)c1N1CCN(C(=O)C2COC2)CC1 [I-N-278, 2-amino-6-fluoro-N-(5-fluoro-4-(4-(oxetane-3-carbonyl)piperazin-1-yl)pyridin-3-yl)pyrazolo[1,5-a]pyrimidine-3-carboxamide] | +++ (Cisplatin sensitization value of <0.02 μM) |
| Nc1nn2cc(F)cnc2c1C(=O)Nc1cnccc1OC1CCS(=O)(=O)CC1 [I-O-45, 2-amino-N-(4-((1,1-dioxidotetrahydro-2H-thiopyran-4-yl)oxy)pyridin-3-yl)-6-fluoropyrazolo[1,5-a]pyrimidine-3-carboxamide] | +++ (Cisplatin sensitization value of <0.02 μM) |
| Nc1nn2cc(F)cnc2c1C(=O)Nc1cnccc1N1CCC(c2ncon2)CC1 [I-N-241, N-(4-(4-(1,2,4-oxadiazol-3-yl)piperidin-1-yl)pyridin-3-yl)-2-amino-6-fluoropyrazolo[1,5-a]pyrimidine-3-carboxamide] | +++ (Cisplatin sensitization value of <0.02 μM) |
